From the NIST ThermoML archive (doi:10.1021/acs.jced.8b00566) come the findings set out here.

The structures appear in SMILES notation. ± gives the expanded uncertainty stated by the source.

The conditions of data set [1]: Crystal; DSC.
Data set [2] in a line: Molar enthalpy of transition or fusion. As to conditions: Crystal; DSC.

On to `CC(=O)O[C@H]1CC[C@@]2(C)C(=CC[C@@H]3[C@@H]2CC[C@]2(C)C(c4cccnc4)=CC[C@@H]32)C1` [abiraterone acetate], for which the Triple point temperature in data set [1] worked out at 419.3 ± 0.8 K. Besides, the “Molar enthalpy of transition or fusion” value in data set [2] was determined as 6.17 ± 0.239 kcal/mol.

As to `C[C@]12CC[C@H](O)CC1=CC[C@@H]1[C@@H]2CC[C@]2(C)C(c3cccnc3)=CC[C@@H]12` [abiraterone], the Triple point temperature in data set [1] worked out at 501.4 ± 0.8 K. In addition, the “Molar enthalpy of transition or fusion” value in data set [2] turned out to be 10.8 ± 0.287 kcal/mol.
